This note sets out measurements from patent US10106534B2 (CELGENE QUANTICEL RESEARCH, INC., priority 2014, dated 2018).

One assay has as its target JMJD2C (Homo sapiens (Human), UniProt Q9H3R0). Nature of the assay: In vitro enzyme inhibition assay for JMJD2C activity (TR-FRET). It counts as biochemical. Put shortly:
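Demethylation product H3K9me2 quantified by TR-FRET ratio 665/615 after EDTA stop and 1 h with Eu-anti-H3K9me2 and streptavidin-APC; IC50 by curve fit. Reaction: 0.3 nM JMJD2C (AA 2-372, baculovirus), 2 μM α-ketoglutarate, 300 nM biotin-H3K9me3 peptide, pH 7.3 HEPES with Fe(II)/ascorbate, 30 min room temperature.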

The target of a further assay is JMJD3 (Homo sapiens, UniProt O15054). Nature of the assay: In vitro enzyme inhibition assay for JMJD3 activity (TR-FRET). In kind it is biochemical. As for the experimental part: This assay determines the ability of a test compound to inhibit JMJD3 demethylase activity.
The enzymatic assay of JMJD3 activity is based upon Time Resolved-Fluorescence Resonance Energy Transfer (TR-FRET) detection. […] Reaction product was determined quantitatively by TR-FRET after the addition of detection reagent Phycolink Streptavidin-allophycocyanin (Prozyme) and Europium-anti-di-methylated histone H3 lysine 27 (H3K27me2) antibody (PerkinElmer) in the presence of 5 mM EDTA in LANCE detection buffer (PerkinElmer) at a final concentration of 50 nM and 1 nM, respectively.
The reaction mixture was incubated at room temperature for 30 minutes, and terminated by the addition of 6 μL of 5 mM EDTA in LANCE detection buffer containing 100 nM Phycolink Streptavidin-allophycocyanin and 2 nM Europium-anti-H3K27me2 antibody.
Background: In TR-FRET formats the signal depends on donor and acceptor labels being close together.

The test system of assay [1] is KYSE-150 esophageal carcinoma cell line. Nature of the assay: In vitro cell-based assay: cellular proliferation via BrdU incorporation (ELISA). Further details: species or system human. Particulars: Homo sapiens, KYSE-150, 168 hours compound incubation. Put shortly:
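BrdU incorporation during S-phase, detected colorimetrically at 450 nm by peroxidase ELISA, measured proliferation after 168 h compound exposure.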
(Incorporation of labelled thymidine or its analogues reports DNA synthesis.)

Chain of JMJD2C (Q9H3R0 2-372): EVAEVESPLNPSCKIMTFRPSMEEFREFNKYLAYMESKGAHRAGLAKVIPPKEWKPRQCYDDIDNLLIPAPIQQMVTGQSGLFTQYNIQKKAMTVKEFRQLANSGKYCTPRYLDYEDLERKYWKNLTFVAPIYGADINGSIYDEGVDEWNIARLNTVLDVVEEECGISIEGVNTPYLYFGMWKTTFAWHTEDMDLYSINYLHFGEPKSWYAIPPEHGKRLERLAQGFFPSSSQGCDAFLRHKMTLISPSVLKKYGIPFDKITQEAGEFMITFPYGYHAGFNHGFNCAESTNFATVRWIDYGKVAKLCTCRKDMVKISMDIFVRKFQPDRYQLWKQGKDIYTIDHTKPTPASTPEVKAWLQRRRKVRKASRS

As for “3-({[(1R)-6-[benzyl(methyl)amino]-1,2,3,4-tetrahydronaphthalen-1-yl]methyl}amino)pyridine-4-carboxylic acid [Example 130]”, the IC50 was in the range of 0.1 to 1 µM at JMJD2C and 1 to 10 µM on JMJD3.

Regarding `CN(c1ccccc1)c1ccc2c(c1)CCCC2CNc1cnccc1C(=O)O` (stereo in doubt) [Example 2, 3-({[(1S)-6-[methyl(phenyl)amino]-1,2,3,4-tetrahydronaphthalen-1-yl]methyl}amino)pyridine-4-carboxylic acid], the IC50 on JMJD2C fell in the range of 0.1 to 1 µM; on JMJD3, 1 to 10 µM.

For the compound `CN(c1ccccc1)c1ccc2c(c1)CCC[C@@H]2CNc1cnccc1C(=O)O` [Example 1, 3-({[(1S)-6-[methyl(phenyl)amino]-1,2,3,4-tetrahydronaphthalen-1-yl]methyl}amino)pyridine-4-carboxylic acid], the IC50 against JMJD2C and against JMJD3 was 1 to 10 µM in each case.

`Cc1cccc(-c2ccc3c(c2)OCC[C@@H]3CNc2cnccc2C(=O)O)c1` [Example 29, 3-({[(4S)-7-(3-methylphenyl)-3,4-dihydro-2H-1-benzopyran-4-yl]methyl}amino)pyridine-4-carboxylic acid]: the IC50 at JMJD2C was 1 to 10 µM; on JMJD3, 0.1 to 1 µM.

As for `Cc1ccc(-c2ccc3c(c2)OCC[C@@H]3CNc2cnccc2C(=O)O)cc1` [Example 31, 3-({[(4S)-7-(4-methylphenyl)-3,4-dihydro-2H-1-benzopyran-4-yl]methyl}amino)pyridine-4-carboxylic acid], the IC50 against JMJD2C fell in the range of 1 to 10 µM; against JMJD3, 0.1 to 1 µM.

As for `O=C(O)c1ccncc1NC[C@H]1CCOc2cc(-c3ccsc3)ccc21` [Example 33, 3-({[(4S)-7-(thiophen-3-yl)-3,4-dihydro-2H-1-benzopyran-4-yl]methyl}amino)pyridine-4-carboxylic acid], the IC50 against JMJD2C is 1 to 10 µM; on JMJD3, under 0.1 µM.

Turning to `Cc1sccc1-c1ccc2c(c1)OCC[C@@H]2CNc1cnccc1C(=O)O` [Example 36, 3-({[(4S)-7-(2-methylthiophen-3-yl)-3,4-dihydro-2H-1-benzopyran-4-yl]methyl}amino)pyridine-4-carboxylic acid], the half-maximal inhibitory concentration (IC50) is 1 to 10 µM at JMJD2C and 0.1 to 1 µM at JMJD3.

Regarding `O=C(O)c1ccncc1NC[C@H]1CCOc2cc(-c3ccccc3Cl)ccc21` [Example 39, 3-({[(4S)-7-(2-chlorophenyl)-3,4-dihydro-2H-1-benzopyran-4-yl]methyl}amino)pyridine-4-carboxylic acid], the IC50 is 1 to 10 µM against JMJD2C and 0.1 to 1 µM against JMJD3.

Consider `O=C(O)c1ccncc1NC[C@H]1CCOc2cc(Sc3cccc(F)c3)ccc21` [Example 52, 3-({[(4S)-7-[(3-fluorophenyl)sulfanyl]-3,4-dihydro-2H-1-benzopyran-4-yl]methyl}amino)pyridine-4-carboxylic acid], for which the IC50 on JMJD2C was 1 to 10 µM; against JMJD3 it was 0.1 to 1 µM.

As for `O=C(O)c1ccncc1NC[C@H]1CCOc2cc(Sc3ccc(F)cc3)ccc21` [Example 54, 3-({[(4S)-7-[(4-fluorophenyl)sulfanyl]-3,4-dihydro-2H-1-benzopyran-4-yl]methyl}amino)pyridine-4-carboxylic acid], the results for the IC50 on JMJD2C and on JMJD3 were 1 to 10 µM and 0.1 to 1 µM, respectively.

For `O=C(O)c1ccncc1NC[C@H]1CCOc2cc(-c3ccccc3)ccc21` [Example 83 of U.S. Pat. No. 8,952,151, 3-({[(4S)-7-phenyl-3,4-dihydro-2H-1-benzopyran-4-yl]methyl}amino)pyridine-4-carboxylic acid, reference compound], the “fold more potent for JMJD3 than the R-enantiomer” value on JMJD3 (S-enantiomer vs R-enantiomer) is over 100 fold.

Consider `O=C(O)c1ccncc1NC[C@@H]1CCOc2cc(-c3ccccc3O)ccc21` [Example 138, 3-({[(4R)-7-(2-hydroxyphenyl)-3,4-dihydro-2H-1-benzopyran-4-yl]methyl}amino)pyridine-4-carboxylic acid], for which the IC50 at JMJD2C was 0.1 to 1 µM; against JMJD3, 1 to 10 µM.

For the compound `CN(c1ccc(N2CC(O)C2)cc1)c1ccc2c(c1)CCC[C@H]2CNc1cnccc1C(=O)O` [Example 200, 3-({[(1R)-6-{[4-(3-hydroxyazetidin-1-yl)phenyl](methyl)amino}-1,2,3,4-tetrahydronaphthalen-1-yl]methyl}amino)pyridine-4-carboxylic acid], the IC50 (against JMJD2C; in assay [1]) was 0.1 to 1 µM throughout.

For the compound `CN(c1ccc(C2=CCOCC2)cc1)c1ccc2c(c1)OCC[C@H]2CNc1cnccc1C(=O)O` [Example 201, 3-({[(4R)-7-{[4-(3,6-dihydro-2H-pyran-4-yl)phenyl](methyl)amino}-3,4-dihydro-2H-1-benzopyran-4-yl]methyl}amino)pyridine-4-carboxylic acid], the IC50 against JMJD2C was 0.1 to 1 µM; in assay [1] it was at most 0.1 µM.

Turning to `O=C(O)c1ccncc1NC[C@@H]1CCOc2cc(C3(c4ccccc4)CC3)ccc21` [Example 203, 3-({[(4R)-7-(1-phenylcyclopropyl)-3,4-dihydro-2H-1-benzopyran-4-yl]methyl}amino)pyridine-4-carboxylic acid], the concentration for half-maximal inhibition (IC50) (on JMJD2C; in assay [1]) was 0.1 to 1 µM each time.

Regarding `CN1CC=C(c2ccc(N(C)c3ccc4c(c3)OCC[C@H]4CNc3cnccc3C(=O)O)cc2)CC1` [Example 204, 3-({[(4R)-7-{methyl[4-(1-methyl-1,2,3,6-tetrahydropyridin-4-yl)phenyl]amino}-3,4-dihydro-2H-1-benzopyran-4-yl]methyl}amino)pyridine-4-carboxylic acid], the IC50 against JMJD2C is at most 0.1 µM; in assay [1] it was over 10 µM.

As to `CN1CCC(c2ccc(N(C)c3ccc4c(c3)OCC[C@H]4CNc3cnccc3C(=O)O)cc2)CC1` [Example 205, 3-({[(4R)-7-{methyl[4-(1-methylpiperidin-4-yl)phenyl]amino}-3,4-dihydro-2H-1-benzopyran-4-yl]methyl}amino)pyridine-4-carboxylic acid], the half-inhibitory concentration (IC50) was at most 0.1 µM against JMJD2C and over 10 µM in assay [1].

Take `Cc1ccc(N(C)c2ccc3c(c2)OCC[C@H]3CNc2cnccc2C(=O)O)cc1C` [Example 206, 3-({[(4R)-7-[(3,4-dimethylphenyl)(methyl)amino]-3,4-dihydro-2H-1-benzopyran-4-yl]methyl}amino)pyridine-4-carboxylic acid]: the IC50 at JMJD2C was 0.1 to 1 µM; in assay [1] it was at most 0.1 µM.

For the compound `CN(c1ccc(CCO)cc1)c1ccc2c(c1)OCC[C@H]2CNc1cnccc1C(=O)O` [Example 207, 3-({[(4R)-7-{[4-(2-hydroxyethyl)phenyl](methyl)amino}-3,4-dihydro-2H-1-benzopyran-4-yl]methyl}amino)pyridine-4-carboxylic acid], the IC50 (at JMJD2C; in assay [1]) was 0.1 to 1 µM each time.

As to `CCCc1ccc(N(C)c2ccc3c(c2)OCC[C@H]3CNc2cnccc2C(=O)O)cc1` [Example 208, 3-({[(4R)-7-[methyl(4-propylphenyl)amino]-3,4-dihydro-2H-1-benzopyran-4-yl]methyl}amino)pyridine-4-carboxylic acid], the IC50 is 1 to 10 µM at JMJD2C and at most 0.1 µM in assay [1].

In the case of `CC(C)Oc1ccc(N(C)c2ccc3c(c2)OCC[C@H]3CNc2cnccc2C(=O)O)cc1` [Example 210, 3-({[(4R)-7-{methyl[4-(propan-2-yloxy)phenyl]amino}-3,4-dihydro-2H-1-benzopyran-4-yl]methyl}amino)pyridine-4-carboxylic acid], the half-inhibitory concentration (IC50) against JMJD2C was 0.1 to 1 µM; in assay [1], at most 0.1 µM.

`CN(c1ccc(OCC2CC2)cc1)c1ccc2c(c1)OCC[C@H]2CNc1cnccc1C(=O)O` [Example 211, 3-({[(4R)-7-{[4-(cyclopropylmethoxy)phenyl](methyl)amino}-3,4-dihydro-2H-1-benzopyran-4-yl]methyl}amino)pyridine-4-carboxylic acid]: the IC50 against JMJD2C was 0.1 to 1 µM; in assay [1], at most 0.1 µM.

Turning to `CCCOc1ccc(N(C)c2ccc3c(c2)OCC[C@H]3CNc2cnccc2C(=O)O)cc1` [Example 212, 3-({[(4R)-7-[methyl(4-propoxyphenyl)amino]-3,4-dihydro-2H-1-benzopyran-4-yl]methyl}amino)pyridine-4-carboxylic acid], the IC50 against JMJD2C is 0.1 to 1 µM; in assay [1], at most 0.1 µM.

Consider `CN(c1ccc(OC2CC2)cc1)c1ccc2c(c1)OCC[C@H]2CNc1cnccc1C(=O)O` [Example 213, 3-({[(4R)-7-[(4-cyclopropoxyphenyl)(methyl)amino]-3,4-dihydro-2H-1-benzopyran-4-yl]methyl}amino)pyridine-4-carboxylic acid], for which the IC50 was 0.1 to 1 µM against JMJD2C and at most 0.1 µM in assay [1].

`CN(c1ccc(OCC(F)(F)F)cc1)c1ccc2c(c1)OCC[C@H]2CNc1cnccc1C(=O)O` [Example 214, 3-({[(4R)-7-{methyl[4-(2,2,2-trifluoroethoxy)phenyl]amino}-3,4-dihydro-2H-1-benzopyran-4-yl]methyl}amino)pyridine-4-carboxylic acid]: the half-maximal inhibitory concentration (IC50) at JMJD2C is 0.1 to 1 µM; in assay [1], at most 0.1 µM.

A word on the IC50: it is the concentration that inhibits the measured activity by half. The low end stands for inhibition by little substance, the high end for a need for much substance.
